Patent publication US20220144853A1, “IMIDAZOLINE DERIVATIVES AS CXCR4 MODULATORS” (Université de Paris, priority 2019, published 2022)
Structures can show the parent of a compound that is named as a salt.

The compounds below were run on IFN production by activated PBMCs (assay: IFN production by R848-activated PBMCs from healthy donors, twINNE reporter cell line). Conditions: Homo sapiens, PBMC, means of two results over 2 healthy donors, R848 5 μg/mL, IT1t: mean over all experiments, read-out: IC50 of anti-inflammatory activity (IFN production).
Assay type: cell-based, human
Procedure: 2) The blood from healthy donors was also obtained from “Etablissement Français du Sang” (convention #19/EFS/029), Paris, France.
In vitro experiments were performed using human peripheral blood mononuclear cells (PBMCs) isolated by density centrifugation from peripheral blood leukocyte separation medium, lymphoprep (Stemcell Technologies).
PBMCs were cultured in RPMI 1640 (Sigma-Aldrich, MO, USA) containing 10% heat-inactivated fetal bovine serum (Sigma-Aldrich, MO, USA) at 37° C./5% CO2.
2) The PBMCs used herein were prepared as described in part A “immune cells preparation”, section 2) above. PBMCs were seeded at 4.10^6/mL. […] Cells were then stimulated with the TLR7/8 agonist resiquimod—R848 (Sigma-Aldrich, MO, USA) at 5 μg/mL.
2) To quantify the secretion of functional IFN, a biological assay based on a stable cell line where luciferase reporter gene is controlled by five Interferon-Stimulated Response Elements (twINNE cell line) was used. It is important to note that the twINNE cell line is the same as the above mentioned STING-37 cell line but with constitutively expressed nanoluciferase. First, supernatants of R848-stimulated PBMCs (see part B, section 2) above) were harvested after 24 h of stimulation and frozen at −20° C. for storage. Then, supernatants were dispensed in culture wells of a 96-well plate containing 35.103 twINNE cells per well in Dulbecco's Modified Eagle's Medium supplemented with 10% Foetal Bovine Serum, 100 U/mL Penicillin and 100 μg/mL Streptomycin (1% Pen-Strep) and 1 mM glutamine (Sigma-Aldrich, MO, USA) at 37° C./5% […]. After 24 h of culture, luciferase activity was determined by adding 60 μL of Bright-Go reagents (Promega, Wisconsin, USA) to culture wells and measuring bioluminescence with EnSpire Multimode Plate Reader (PerkinElmer, Massachusetts, USA). When stated, for IC50 calculation, dose-response curves fitted using the nonlin fit (variable slope) analysis in GraphPad Prism software (GraphPad Software, California, USA).

`C1=C(CSC2=N[C@@H]3CCCC[C@H]3N2)N2CCCN=C2S1` [Example 45, 3-((((3aR,7aR)-3a,4,5,6,7,7a-hexahydro-1H-benzo[d]imidazol-2-yl)thio)methyl)-6,7-dihydro-5H-thiazolo[3,2-a]pyrimidine dihydrochloride] was tested. Which IC50 did it give?
The IC50 was at least 31 µM.

Which IC50 does the source give for `C1=C(CSC2=NCC(Cc3ccccc3)N2)N2CCCN=C2S1` (stereo not shown) [Example 48, 3-(((5-benzyl-4,5-dihydro-1H-imidazol-2-yl)thio)methyl)-6,7-dihydro-5H-thiazolo[3,2-a]pyrimidine dihydrochloride] here?
The IC50 was at most 10 µM.

For `CN1CCCN=C1SCC1=CSC2=NC(C)(C)CN12` [Example 57, 6,6-dimethyl-3-(((1-methyl-1,4,5,6-tetrahydropyrimidin-2-yl)thio)methyl)-5,6-dihydroimidazo[2,1-b]thiazole dihydrochloride], which IC50 is on record?
The IC50 was at least 31 µM.

Which IC50 does the source give for `CC1(C)CN=C(SCCc2cccc3ncccc23)N1` [Example 41, 5-(2-((5,5-dimethyl-4,5-dihydro-1H-imidazol-2-yl)thio)ethyl)quinoline dihydrochloride] here?
The IC50 was at least 31 µM.

Which IC50 does the source give for `CC1(C)CN2C(CSC3=NCC(c4ccccc4)N3)=CSC2=N1` (stereo not shown) [Example 53, 6,6-dimethyl-3-(((4-phenyl-4,5-dihydro-1H-imidazol-2-yl)thio)methyl)-5,6-dihydroimidazo[2,1-b]thiazole dihydrochloride] here?
Its IC50 is at most 10 µM.

`CC1(C)CN2C(CSC3=N[C@H]4COC[C@H]4N3)=CSC2=N1` [Example 25, (3aR,6aS)-2-(((6,6-dimethyl-5,6-dihydroinidazo[2,1-b]thiazol-3-yl)methyl)thio)-3a,4,6,6a-tetrahydro-1H-furo[3,4-d]imidazole dihydrochloride] was tested. Which IC50 did it give?
The IC50 was at least 31 µM.

How did the IC50 turn out when `CC1(C)CN2C(=N1)SC(I)=C2CSC1=NCC(C)(C)N1` [Example 66, 3-(((5,5-dimethyl-4,5-dihydro-1H-imidazol-2-yl)thio)methyl)-2-iodo-6,6-dimethyl-5,6-dihydroimidazo[2,1-b]thiazole dihydrochloride] was run?
Its IC50 is at most 10 µM.

With `C1=C(CSC2=NCCCN2)N2CCCN=C2S1` [Example 29, 3-(((1,4,5,6-tetrahydropyrimidin-2-yl)thio)methyl)-6,7-dihydro-5H-thiazolo[3,2-a]pyrimidine dihydrochloride] as the compound, how does the IC50 read?
Its IC50 is at least 31 µM.

`CC1(C)CN=C(SCC2=CSC3=NC4(CC4)CN23)N1` [Example 33, dihydrochloride] was tested. Which IC50 did it give?
Its IC50 is at least 31 µM.

How did the IC50 turn out when `CC1(C)CN=C(SCC2=CSC3=NC4(CCCCC4)CN23)N1` [Example 42, 3′-(((5,5-dimethyl-4,5-dihydro-1H-imidazol-2-yl)thio)methyl)-5′H-spiro[cyclohexane-1,6′-imidazo[2,1-b]thiazole] dihydrochloride] was run?
Its IC50 is 10 to 31 µM.

For `C1=C(CSC2=NCCN2)N2CCCN=C2S1` [Example 26, 3-(((4,5-dihydro-1H-imidazol-2-yl)thio)methyl)-6,7-dihydro-5H-thiazolo[3,2-a]pyrimidine dihydrochloride], which IC50 is on record?
Its IC50 is at least 31 µM.

For `C1=C(CSC2=N[C@H]3CCCC[C@@H]3N2)N2C(=N[C@H]3CCCCC32)S1` (mixture of isomers) [Example 56, trans-3-((((3aS,7aS)-3a,4,5,6,7,7a-hexahydro-1H-benzo[d]imidazol-2-yl)thio)methyl)-4a,5,6,7,8,8a-hexahydrobenzo[4,5]imidazo[2,1-b]thiazole dihydrochloride], which IC50 is on record?
The IC50 was at most 10 µM.

`CC1(C)CN=C(SCc2cccnc2)N1` [Example 32, 3-(((5,5-dimethyl-4,5-dihydro-1H-imidazol-2-yl)thio)methyl)pyridine dihydrochloride] was tested. Which IC50 did it give?
Its IC50 is at least 31 µM.

`CC1(C)CN2C(CSC3=NCCCN3)=CSC2=N1` [Example 9, 6,6-dimethyl-3-(((1,4,5,6-tetrahydropyrimidin-2-yl)thio)methyl)-5,6-dihydroimidazo[2,1-b]thiazole dihydrochloride] was tested. Which IC50 did it give?
Its IC50 is at least 31 µM.

For `CC1(C)CN2C(CSC3=NCCN3)=CSC2=N1` [Example 8, 3-(((4,5-dihydro-1H-imidazol-2-yl)thio)methyl)-6,6-dimethyl-5,6-dihydroimidazo[2,1-b]thiazole dihydrochloride], which IC50 is on record?
The IC50 was 10 to 31 µM.

Which IC50 does the source give for `CN1CCN=C1SCC1=CSC2=NC(C)(C)CN12` [Example 11, 6,6-dimethyl-3-(((1-methyl-4,5-dihydro-1H-imidazol-2-yl)thio)methyl)-5,6-dihydroimidazo[2,1-b]thiazole dihydrochloride] here?
The IC50 was at most 10 µM.

How did the IC50 turn out when `CC1(C)CN=C(SCC2=CSC3=NCCCN23)N1` [Example 14, 3-(((5,5-dimethyl-4,5-dihydro-1H-imidazol-2-yl)thio)methyl)-6,7-dihydro-5H-thiazolo[3,2-a]pyrimidine dihydrochloride] was run?
Its IC50 is at least 31 µM.

How did the IC50 turn out when `CC(C)C1CN=C(SCC2=CSC3=NC(C)(C)CN23)N1` (stereo not shown) [Example 49, 3-(((5-isopropyl-4,5-dihydro-1H-imidazol-2-yl)thio)methyl)-6,6-dimethyl-5,6-dihydroimidazo[2,1-b]thiazole dihydrochloride] was run?
Its IC50 is 10 to 31 µM.

Which IC50 does the source give for `CC1(C)CN=C(SCC2=CSC3=NC4CCCCC4CN23)N1` (stereo not shown) [Example 43, 3-(((5,5-dimethyl-4,5-dihydro-1H-imidazol-2-yl)thio)methyl)-5a,6,7,8,9,9a-hexahydro-5H-thiazolo[2,3-b]quinazoline dihydrochloride] here?
Its IC50 is 10 to 31 µM.

How did the IC50 turn out when `CC1(C)CN=C(SCC2=CSC3=NC(C)(C)C(C)(C)N23)N1` [Example 20, 3-(((5,5-dimethyl-4,5-dihydro-1H-imidazol-2-yl)thio)methyl)-5,5,6,6-tetramethyl-5,6-dihydroimidazo[2,1-b]thiazole dihydrochloride] was run?
Its IC50 is 10 to 31 µM.

For `CCCCC1CN=C(SCC2=CSC3=NC(Cc4ccccc4)CN23)N1` (stereo not shown) [Example 51, 6-benzyl-3-(((5-butyl-4,5-dihydro-1H-imidazol-2-yl)thio)methyl)-5,6-dihydroinidazo[2,1-b]thiazole dihydrochloride], which IC50 is on record?
Its IC50 is at most 10 µM.

How did the IC50 turn out when `c1ccc(CC2CN=C(SCCCc3ccc4c(n3)NCCC4)N2)cc1` (stereo not shown) [Example 68, 7-(3-((5-benzyl-4,5-dihydro-1H-imidazol-2-yl)thio)propyl)-1,2,3,4-tetrahydro-1,8-naphthyridine dihydrochloride] was run?
Its IC50 is 10 to 31 µM.

How did the IC50 turn out when `C1=C(CSC2=N[C@@H]3CCCC[C@H]3N2)N2CCCCN=C2S1` [Example 46, 3-((((3aR,7aR)-3a,4,5,6,7,7a-hexahydro-1H-benzo[d]imidazol-2-yl)thio)methyl)-5,6,7,8-tetrahydrothiazolo[3,2-a][1,3]diazepine dihydrochloride] was run?
Its IC50 is at least 31 µM.

For `c1ccc(CC2CN=C(SCCc3cccnc3)N2)cc1` (stereo not shown) [Example 65, 3-(2-((5-benzyl-4,5-dihydro-1H-imidazol-2-yl)thio)ethyl)pyridine dihydrochloride], which IC50 is on record?
The IC50 was at least 31 µM.

Which IC50 does the source give for `CC1(C)CN=C(SCC2=CSC3=NCCCCN23)N1` [Example 15, 3-(((5,5-dimethyl-4,5-dihydro-1H-imidazol-2-yl)thio)methyl)-5,6,7,8-tetrahydrothiazolo[3,2-a][1,3]diazepine dihydrochloride] here?
Its IC50 is at least 31 µM.

For `CC1(C)CN=C(SCC2=CSC3=NC(C)(C)CN23)NC1` [Example 28, 3-(((5,5-dimethyl-1,4,5,6-tetrahydropyrimidin-2-yl)thio)methyl)-6,6-dimethyl-5,6-dihydroimidazo[2,1-b]thiazole dihydrochloride], which IC50 is on record?
Its IC50 is at least 31 µM.

For `C1=C(CSC2=NCCN2)N2CCN=C2S1` [Example 6, 3-(((4,5-dihydro-1H-imidazol-2-yl)thio)methyl)-5,6-dihydroimidazo[2,1-b]thiazole dihydrochloride], which IC50 is on record?
The IC50 was 10 to 31 µM.

How did the IC50 turn out when `CCCCC1CN2C(CSC3=NCC(C)(C)N3)=CSC2=N1` (stereo not shown) [Example 19, 6-butyl-3-(((4,4-dimethyl-4,5-dihydro-1H-imidazol-2-yl)thio)methyl)-5,6-dihydroinidazo[2,1-b]thiazole dihydrochloride] was run?
Its IC50 is 10 to 31 µM.

For `CC1(C)CN2C(CSC3=N[C@H]4CCCC[C@@H]4N3)=CSC2=N1` [Example 4, 3-((((3aS,7aS)-3a,4,5,6,7,7a-hexahydro-1H-benzo[d]imidazol-2-yl)thio)methyl)-6,6-dimethyl-5,6-dihydroimidazo[2,1-b]thiazole dihydrochloride], which IC50 is on record?
The IC50 was at most 10 µM.

`CC(C)[C@@H]1N=C2SC=C(CSC3=NCC(C)(C)N3)N2[C@H]1C(C)C` (racemic) [Example 62, trans-3-(((5,5-dimethyl-4,5-dihydro-1H-imidazol-2-yl)thio)methyl)-5,6-diisopropyl-5,6-dihydroimidazo[2,1-b]thiazole dihydrochloride] was tested. Which IC50 did it give?
Its IC50 is 10 to 31 µM.

With `CC1(C)CN2C(CSC3=N[C@@H]4CCC[C@@H](C4)N3)=CSC2=N1` [Example 22, 3-((((1R,5S)-2,4-diazabicyclo[3.3.1]non-2-en-3-yl)thio)methyl)-6,6-dimethyl-5,6-dihydroimidazo[2,1-b]thiazole dihydrochloride] as the compound, how does the IC50 read?
Its IC50 is at least 31 µM.
